Test results published in patent US6043223A, “Enhanced opening of abnormal brain tissue capillaries” (priority 1997, dated 2000).
Where a SMILES comes first, the peptide text is derived from it.

Key:
brain tumor capillaries = conditions: intracarotid infusion; previous studies (6-9); cited from earlier work
RG2 gliomas = assay: Regional permeability (Ki) by quantitative autoradiography in rats with implanted RG2 gliomas; format: in vivo, rat; conditions: for effect on tumor permeability 20 minutes after stopping the intracarotid infusion (in words): [14C]-dextran
Description: (§1) RG2 and C6 are cell lines derived from rat gliomas induced by ethylnitrosourea (17,18). The glioma cells were kept frozen until use, then thawed and maintained in a monolayer culture in F12 medium with 10% calf serum. The rats were anesthetized with intra-peritoneal ketamine (50 mg/kg). Glial tumors were implanted into the right hemisphere by intracerebral injections of 1×10^5 glioma cells in 5 μl F12 medium (1.2% methylcellulose) by a Hamilton syringe. The coordinates used were 5 mm lateral to the bregma, and 4.5 mm deep to the dural surface.
(§2) Seven or eight days after tumor implantation, the rats were anesthetized with intra-peritoneal urethane (1 g/kg) and a polyethylene catheter was inserted retrograde through the external carotid artery to the common carotid artery bifurcation ipsilateral to the tumor. The external carotid artery and pterygopalatine artery were then ligated. Both femoral veins were cannulated for administration of drugs or tracers. One femoral artery was cannulated to monitor systemic blood pressure and the other femoral artery was cannulated to withdraw arterial blood. Body temperature was maintained at 37° C. and arterial blood gases, blood pressure, and hematocrit were monitored.
The tumor-implanted rats were grouped by tracers and by tumor types. Bradykinin (Sigma Chemical Co., St. Louis, Mo.) or PBS (control) was infused into the right carotid artery at a rate of 53.3 μl/minute (10 μg/kg/minute) for 15 minutes. In regional permeability studies, 5 minutes after the start of the intracarotid infusion, […] of [^14 C]-AIB (MW 103, Dupon-New England Nuclear Co., Boston, Mass.) or [^14 C]-Dextran (MW 70,000, Dupon-New England Nuclear Co.) was injected as an intravenous bolus. A peristaltic withdrawal pump was used to withdraw femoral arterial blood at a constant rate of […] immediately after the injection of the tracer for the determination of serum radioactivity. Fifteen minutes after the start of intracarotid infusions, the animals were killed by decapitation and the brains were rapidly removed and frozen.
Bradykinin, zaprinast or bradykinin mixed with zaprinast was infused into the right carotid artery at a rate of 53.3 μl/minute for 15 minute. The rate of infusion of bradykinin and zaprinast was 10 μg/kg/minute and 1.67 mg/kg/minute ([…]) respectively. Injection of tracer, withdrawing of arterial blood, and other protocols were in the same manner as described above.
The duration of the effect of the intracarotid bradykinin with or without zaprinast infusion in RG2 glioma was examined at three different periods by changing the time of [^14 C]-dextran injection relative to intracarotid infusion of bradykinin with or without zaprinast.
The frozen brains were mounted onto pedestals with M-1 embedding matrix (Lipshaw, Pittsburgh, Pa.) and 20 μm coronal sections were cut with a cryotome. The sections were thawmounted onto cover slips and autoradiograms were generated by co-exposing the sections on Kodak XAR-5 film with tissue calibrated [^14 C]-standards (Amersham, Arlington Heights, Ill.) for 2 weeks. The sequential section was stained with hematoxylin for the correlation of areas of histologically verified tumor areas with autoradiograms. The regional radioactivity was measured in the tumor, BST (areas within 2 mm distance from the border of the tumor), right cortex (ipsilateral cortex), left cortex (contralateral cortex), right white matter, left white matter, right basal ganglia, and left basal ganglia. Quantitative analysis of the regional radioactivity was performed using a computer (Power Macintosh 7100) and the software, Image 1.55 (NIH).
For quantitative autoradiographic examination, the regional permeability in the brain and tumor tissues were expressed by the unidirectional transfer constant, Ki value (μl/g/minute) which was determined as described in References 21, 22, 23 and 24). […]

C6 gliomas = assay: Regional permeability (Ki) by quantitative autoradiography in rats with implanted C6 gliomas; format: in vivo, rat
Description: as §1, §2
The tumor-implanted rats were grouped by tracers and by tumor types. Bradykinin (Sigma Chemical Co., St. Louis, Mo.) or PBS (control) was infused into the right carotid artery at a rate of 53.3 μl/minute (10 μg/kg/minute) for 15 minutes. […] A peristaltic withdrawal pump was used to withdraw femoral arterial blood at a constant rate of […] immediately after the injection of the tracer for the determination of serum radioactivity. […]
The frozen brains were mounted onto pedestals with M-1 embedding matrix (Lipshaw, Pittsburgh, Pa.) and 20 μm coronal sections were cut with a cryotome. […] The regional radioactivity was measured in the tumor, BST (areas within 2 mm distance from the border of the tumor), right cortex (ipsilateral cortex), left cortex (contralateral cortex), right white matter, left white matter, right basal ganglia, and left basal ganglia. Quantitative analysis of the regional radioactivity was performed using a computer (Power Macintosh 7100) and the software, Image 1.55 (NIH).
For quantitative autoradiographic examination, the regional permeability in the brain and tumor tissues were expressed by the unidirectional transfer constant, Ki value (μl/g/minute) which was determined as described in References 21, 22, 23 and 24).
For all tracers, statistical comparison of regional Ki values or blood volume between same regions with/without bradykinin or zaprinast were determined using analysis of variance (ANOVA) followed by non-parametric analysis of Mann-Whitney's U test. […]

[1] = rat, in vivo
From the text: as §2

[2] = Solubility of zaprinast in saline; format: physicochemical
Description: The bradykinin/bradykinin analog and zaprinast are preferably infused in the form of a pharmaceutical solution having a […] phosphate buffered saline solution as the carrier. The concentration of bradykinin in the solution is 10-40 μg/ml with the preferred concentration of zaprinast being on the order of 1 to 10 mg/ml for carotid artery administration. For intravenous administration, the concentration of bradykinin/bradykinin analog is preferably between about 15 μg/ml to 50 mg/ml with the preferred concentration of zaprinast being on the order of 2 mg/ml to 15 mg/ml. Zaprinast is not soluble directly in saline. Accordingly, it is preferred that the pharmaceutical solution be prepared by dissolving zaprinast in 1 M sodium hydroxide to form a concentrated solution of approximately 100 to 500 mg/ml zaprinast. This concentrated solution is then dissolved into phosphate buffered saline (PBS) to the final desired concentration. Bradykinin or the bradykinin analog is then added to the solution to form the final pharmaceutical preparation. The relative concentrations within the pharmaceutical preparation are adjusted as set forth above to provide a solution which is suitable for either carotid artery infusion or intravenous administration.

Row | blood gas parameters or hemoglobin concentration (in words) [1] | solubility in saline (in words) [2] | SMILES | permeability in brain tumor capillaries vs normal brain capillaries (in words) (brain tumor capillaries) | transport (Ki) of either tracer in other normal brain / non-tumor regions (in words) (RG2 gliomas; RG2-bearing rats, [14C]-dextran and [14C]-AIB) | Ki for AIB in BST (brain within 2 mm of the tumor) (RG2 gliomas; RG2, brain surrounding tumor, intracarotid infusion 15 minutes) [µL/g/min] | Ki for dextran in BST (in words) (RG2 gliomas; RG2, brain surrounding tumor, vs control) | effect on tumor permeability 20 minutes after stopping the intracarotid infusion (in words) (RG2 gliomas; RG2 tumor, time course study) | Ki in tumors for [14C]-dextran, fold higher than in controls (RG2 gliomas; RG2 tumor, bradykinin 10 μg/kg/minute intracarotid vs PBS control) [fold] | Ki in tumors for [14C]-AIB (MW 103) (RG2 gliomas; RG2 tumor, intracarotid infusion 15 minutes (bradykinin 10 μg/kg/minute, zaprinast 1.67 mg/kg/minute), mean±SD) [µL/g/min] | transfer constant, Ki, in tumors for [14C]-dextran (MW 70,000) (RG2 gliomas; RG2 tumor, intracarotid infusion 15 minutes (bradykinin 10 μg/kg/minute, zaprinast 1.67 mg/kg/minute), tracer i.v. 5 minutes after start, mean±SD) [µL/g/min] | [14C]-dextran uptake into the tumor (Ki) 10 minutes after stopping the intracarotid infusion (RG2 gliomas; RG2 tumor, time course study) [µL/g/min] | transport (Ki) for either tracer in non-tumor regions (in words) (C6 gliomas; C6-bearing rats, [14C]-dextran and [14C]-AIB) | Ki in tumors for [14C]-dextran, fold higher than in controls (C6 gliomas; C6 tumor, bradykinin intracarotid vs PBS control) [fold] | bradykinin effect on tumor permeability (Ki) at 10 minutes after infusion (in words) (RG2 gliomas; RG2 tumor, FIG. 5 time course) | Ki values in RG2 tumors for both tracers (in words) (RG2 gliomas; zaprinast alone, intracarotid, [14C]-dextran and [14C]-AIB) | Ki in tumors for [14C]-AIB (C6 gliomas; C6 tumor, intracarotid infusion 15 minutes (bradykinin 10 μg/kg/minute, zaprinast 1.67 mg/kg/minute)) [µL/g/min] | Ki values in C6 tumors for [14C]-dextran, increase with zaprinast alone (in words) (C6 gliomas; C6 tumor, zaprinast alone, intracarotid)
1 |  |  | CCCCC/C=C\C\C=C/C=C/C=C/[C@@H](SC[C@H](NC(=O)CC[C@H](N)C(=O)O)C(=O)NCC(=O)O)[C@@H](O)CCCC(=O)O [LTC4, leukotriene C4] | selectively increases |  |  |  |  |  |  |  |  |  |  |  |  |  | 
2 |  |  | NC(N)=NCCC[C@H](NC(=O)[C@H](Cc1ccccc1)NC(=O)[C@@H]1CCCN1C(=O)[C@H](CO)NC(=O)[C@H](Cc1ccccc1)NC(=O)CNC(=O)[C@@H]1CCCN1C(=O)[C@@H]1CCCN1C(=O)[C@@H](N)CCCN=C(N)N)C(=O)O [bradykinin] (H-RPPGFSPFR-OH) |  | did not increase | 5.31 ± 1.50 | not significantly increased | diminished | 8.4 | 26.46 ± 2.64 | 14.33 ± 2.96 | 3.89 ± 0.74 | did not increase | 3.1 |  |  |  | 
3 | did not change | not soluble | CCCOc1ccccc1-c1nc2nn[nH]c2c(=O)[nH]1 [zaprinast, 2-(2-propyloxyphenyl)-8-azapurin-6-one] |  |  |  |  | negligible |  |  |  |  |  |  | significantly prolonged | did not increase | 31.4 | not
